According to patent US20180263985A1, “MODULATORS OF TOLL-LIKE RECEPTORS FOR THE TREATMENT OF HIV” (Gilead Sciences, Inc., priority 2015, published 2018):

How the values were obtained:
Format in all cases: cell-based, human
Monocytes = experiment: Immune cell activation in PBMC cultures, flow cytometry: monocytes
Procedure: (§1) TLR8 is expressed on multiple immune cell subsets. To determine how treatment with a TLR8 modulating compound affects activation of distinct cell populations, PBMCs were purified from HIV-1 infected subjects on cART, as described in Example 121 (anonymized participant IDs 184, 185, 188, 189, 190, and 191). […] After incubation, PBMCs were harvested and stained with antibodies conjugated to specific fluorophores (BD Biosciences) to delineate immune cell subsets: CD4 T cells (CD3+CD4+CD8−), CD8 T cells (CD3+CD8+CD4−), NK cells (CD3−CD56+CD16+), monocytes (CD3−CD14+), B cells (CD3−CD19+), and peripheral dendritic cells (DCs), defined as positive for HLA-DR and negative for a panel of markers: CD3, CD14, CD16, CD19, CD20, CD56 (Lin-1 lineage panel, BD Biosciences).
(§2) Additional markers of activation, maturation, and effector function were included for cell subsets, as follows: CD4 and CD8 T cells (CD25, CD38, CD69, IFN-γ, granzyme B, perforin, TNF-α), NK cells (CD25, CD69, IFN-γ), monocytes (CD11c, CD16, CD80, CD86, CD163, TNF-α), B cells (CD40, CD69, CD80, CD86), and DC (CD11c, CD69, CD80, CD86, CD123, and CD163). Cells were stained for surface markers (CD3, CD4, CD8, CD11c, CD14, CD16, CD25, CD69, CD80, CD86, CD163), washed, treated with fixation and permeabilization buffer (eBioscience), and stained for intracellular markers (IFN-γ, granzyme B, perforin, TNF-α). Cells were evaluated by flow cytometry on a LSR Fortessa (BD Biosciences), and data was analyzed with FlowJo software (TreeStar).
(§3) Data are expressed as geometric mean percentage (%) and as geometric mean fold-activation (Fold) for each marker and for each PBMC subset obtained from 4 or 6 subjects, as indicated. Fold activation is calculated as a ratio of the % positive for each marker for each PBMC subset at the indicated concentration of the compound of Example 15 relative to % positive for DMSO treated samples. Fold activations that are 1.5 are in bold.

[1] = test system: HIV-specific polyfunctional CD8 T cells; experiment: Induced HIV-specific polyfunctional CD8+ T cells in PBMC cultures from HIV-1 infected subjects on cART
DCs = experiment: Immune cell activation in PBMC cultures, flow cytometry: DCs; details: for DCs CD80 Fold / DCs CD69 Fold: 2 days, N = 4
Procedure: as §1, §2, §3

NK Cells = experiment: Immune cell activation in PBMC cultures, flow cytometry: NK cells; details: for NK Cells CD25 Fold / NK Cells CD69 Fold: 2 days, N = 6
Procedure: as §1, §2, §3

CD8+ T Cells = experiment: Immune cell activation in PBMC cultures, flow cytometry: CD8+ T cells; details: 2 days; for CD8+ T Cells CD25 Fold / CD8+ T Cells CD28 Fold / CD8+ T Cells CD38 Fold / CD8+ T Cells CD69 Fold / CD8+ T Cells CD25 % / CD8+ T Cells CD28 % / CD8+ T Cells CD69 %: N = 6
Procedure: as §1, §2, §3

CCCC[C@H](CO)Nc1nc(N)nc2cccnc12 [Example 15]
Monocytes CD11c Fold (Monocytes; 10 nM vs DMSO, 2 days, N = 6): 0.6 fold | Monocytes CD69 Fold (Monocytes; 10 nM vs DMSO, 2 days, N = 6): 0.3 fold | Monocytes CD80 Fold (Monocytes; 10 nM vs DMSO, 2 days, N = 6): 1.1 fold | Monocytes CD11c % (Monocytes; 10 nM, 2 days, N = 6): 0.4% | Monocytes CD69 % (Monocytes; 10 nM, 2 days, N = 6): 0.8% | Monocytes CD80 % (Monocytes; 10 nM, 2 days, N = 6): 33.0% | Monocytes CD11c Fold (Monocytes; 100 nM vs DMSO, 2 days, N = 6): 5.2 fold | Monocytes CD69 Fold (Monocytes; 100 nM vs DMSO, 2 days, N = 6): 0.6 fold | Monocytes CD80 Fold (Monocytes; 100 nM vs DMSO, 2 days, N = 6): 1.6 fold | Monocytes CD11c % (Monocytes; 100 nM, 2 days, N = 6): 3.6% | Monocytes CD69 % (Monocytes; 100 nM, 2 days, N = 6): 1.8% | Monocytes CD11c Fold (Monocytes; 1000 nM vs DMSO, 2 days, N = 6): 1.6 fold | Monocytes CD69 Fold (Monocytes; 1000 nM vs DMSO, 2 days, N = 6): 2.0 fold | Monocytes CD80 Fold (Monocytes; 1000 nM vs DMSO, 2 days, N = 6): 3.0 fold | Monocytes CD11c % (Monocytes; 1000 nM, 2 days, N = 6): 1.2% | Monocytes CD69 % (Monocytes; 1000 nM, 2 days, N = 6): 6.2% | Monocytes CD11c Fold (Monocytes; 3000 nM vs DMSO, 2 days, N = 6): 2.1 fold | Monocytes CD69 Fold (Monocytes; 3000 nM vs DMSO, 2 days, N = 6): 2.6 fold | Monocytes CD80 Fold (Monocytes; 3000 nM vs DMSO, 2 days, N = 6): 2.7 fold | Monocytes CD11c % (Monocytes; 3000 nM, 2 days, N = 6): 1.5% | Monocytes CD69 % (Monocytes; 3000 nM, 2 days, N = 6): 7.9% | Concentration of maximal activation of monocytes (Monocytes; increased expression of CD11c): 100 nM | Concentration of maximal activation of monocytes (Monocytes; increased expression of CD69): 3000 nM | Concentration of maximal activation of monocytes (Monocytes; increased expression of CD80): 1000 nM | Patients in whom increases in HIV-specific polyfunctional CD8 T cells were seen ([1]; 100 nM): 3 of 5 | Median HIV-specific polyfunctional CD8 T cells (% proliferating CD8+ cells double positive for IFN-γ and TNF-α) ([1]; 100 nM, HIV peptide pool, 5 subjects): 0.99% | Patients in whom increases in HIV-specific polyfunctional CD8 T cells were seen ([1]; 1000 nM): 4 of 5 | Fold increase of median HIV-specific polyfunctional CD8 T cells ([1]; 1000 nM with HIV specific peptide pool vs vehicle, p<0.05): 2.7 fold | DCs CD80 Fold (DCs; 10 nM vs DMSO): 1.8 fold | DCs CD69 Fold (DCs; 100 nM vs DMSO): 0.4 fold | DCs CD80 Fold (DCs; 100 nM vs DMSO): 2.4 fold | DCs CD69 Fold (DCs; 1000 nM vs DMSO): 3.3 fold | DCs CD80 Fold (DCs; 1000 nM vs DMSO): 2.9 fold | DCs CD69 Fold (DCs; 3000 nM vs DMSO): 8.9 fold | DCs CD80 Fold (DCs; 3000 nM vs DMSO): 2.0 fold | Concentration of maximal activation of DCs (DCs; increased expression of CD69): 3000 nM | Concentration of maximal activation of DCs (DCs; increased expression of CD80): 1000 nM | NK Cells CD25 Fold (NK Cells; 10 nM vs DMSO): 0.4 fold | NK Cells CD69 Fold (NK Cells; 10 nM vs DMSO): 0.4 fold | NK Cells CD25 Fold (NK Cells; 100 nM vs DMSO): 1.6 fold | NK Cells CD69 Fold (NK Cells; 100 nM vs DMSO): 0.6 fold | NK Cells CD69 Fold (NK Cells; 1000 nM vs DMSO): 12.4 fold | NK Cells CD25 Fold (NK Cells; 3000 nM vs DMSO): 9.6 fold | NK Cells CD69 Fold (NK Cells; 3000 nM vs DMSO): 11.8 fold | Concentration of maximal activation of NK cells (NK Cells; increased expression of CD25 and CD69): 1000 nM | CD8+ T Cells CD25 Fold (CD8+ T Cells; 10 nM vs DMSO): 0.6 fold | CD8+ T Cells CD28 Fold (CD8+ T Cells; 10 nM vs DMSO): 0.9 fold | CD8+ T Cells CD38 Fold (CD8+ T Cells; 10 nM vs DMSO): 0.9 fold | CD8+ T Cells CD69 Fold (CD8+ T Cells; 10 nM vs DMSO): 0.8 fold | CD8+ T Cells CD25 % (CD8+ T Cells; 10 nM): 0.2% | CD8+ T Cells CD28 % (CD8+ T Cells; 10 nM): 0.1% | CD8+ T Cells CD69 % (CD8+ T Cells; 10 nM): 3.7% | CD8+ T Cells CD25 Fold (CD8+ T Cells; 100 nM vs DMSO): 1.0 fold | CD8+ T Cells CD28 Fold (CD8+ T Cells; 100 nM vs DMSO): 1.1 fold | CD8+ T Cells CD38 Fold (CD8+ T Cells; 100 nM vs DMSO): 1.0 fold | CD8+ T Cells CD69 Fold (CD8+ T Cells; 100 nM vs DMSO): 0.7 fold | CD8+ T Cells CD25 % (CD8+ T Cells; 100 nM): 0.3% | CD8+ T Cells CD28 % (CD8+ T Cells; 100 nM): 0.1% | CD8+ T Cells CD69 % (CD8+ T Cells; 100 nM): 3.4% | CD8+ T Cells CD25 Fold (CD8+ T Cells; 1000 nM vs DMSO): 2.2 fold | CD8+ T Cells CD28 Fold (CD8+ T Cells; 1000 nM vs DMSO): 4.4 fold | CD8+ T Cells CD38 Fold (CD8+ T Cells; 1000 nM vs DMSO): 2.0 fold | CD8+ T Cells CD69 Fold (CD8+ T Cells; 1000 nM vs DMSO): 2.2 fold | CD8+ T Cells CD25 % (CD8+ T Cells; 1000 nM): 0.7% | CD8+ T Cells CD28 % (CD8+ T Cells; 1000 nM): 0.4% | CD8+ T Cells CD25 Fold (CD8+ T Cells; 3000 nM vs DMSO): 3.0 fold | CD8+ T Cells CD28 Fold (CD8+ T Cells; 3000 nM vs DMSO): 4.7 fold | CD8+ T Cells CD38 Fold (CD8+ T Cells; 3000 nM vs DMSO): 2.0 fold | CD8+ T Cells CD69 Fold (CD8+ T Cells; 3000 nM vs DMSO): 2.5 fold | CD8+ T Cells CD25 % (CD8+ T Cells; 3000 nM): 0.9% | CD8+ T Cells CD28 % (CD8+ T Cells; 3000 nM): 0.5% | Perforin in CD8+ T cells (CD8+ T Cells; Example 15 treatment): did not increase
